Reference: patent publication US12421212B2, “Substituted benzenecarboxamides as IL-17A modulators” (DiCE Alpha, Inc., priority 2019, dated 2025)

target: T1, IL-17A/A (Homo sapiens, UniProt Q16552); experiment: IL-17A/A HEK-Blue Cell Assay; assay type: cell-based; settings: HEK-Blue IL-17A reporter cell line, SEAP readout at A630, 20 hours incubation with IL-17A/A; top concentration 10 uM, 1 uM or 0.3 uM; read-out: IL-17A/A inhibition (pIC50) (converted)
T1 construct: purchased Genscript Z03228
T1 sequence (Q16552 24-155): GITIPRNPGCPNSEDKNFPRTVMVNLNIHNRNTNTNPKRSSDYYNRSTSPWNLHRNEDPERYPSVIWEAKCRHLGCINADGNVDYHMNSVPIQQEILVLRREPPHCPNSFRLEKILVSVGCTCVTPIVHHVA

IC50, < 10 nM:
CC(C)n1nccc1C(=O)N[C@H](C(=O)Nc1ccc([C@H](C)[C@@H](NC(=O)c2ccnn2CC2CC2)C(=O)N2CCN(C)CC2)cc1F)[C@H]1CC[C@H](C)CC1 [Compound 329]
CC(C)n1nccc1C(=O)N[C@@H](C(=O)N1CCN(C)CC1)[C@@H](C)c1ccc(NC(=O)[C@@H](NC(=O)c2ccnn2C(C)C)[C@H]2CC[C@H](C)CC2)c(F)c1 [Compound 330]
COc1ccc(C(F)(F)C(=O)N[C@H](C(=O)Nc2ccc([C@H](C)[C@@H](NC(=O)c3cnns3)C(=O)N3CCN(C)CC3)cc2F)C2CCCCCC2)cn1 [Compound 331]
CC(C)n1nccc1C(=O)N[C@H](C(=O)Nc1ccc([C@H](C)[C@@H](NC(=O)c2cnns2)C(=O)N2CCN(C)CC2)cc1F)C1CCCCCC1 [Compound 332]
CC(C)n1nccc1C(=O)N[C@H](C(=O)Nc1ccc([C@H](C)[C@@H](NC(=O)c2cnns2)C(=O)N2CCN(C)CC2)cc1F)[C@H]1CC[C@H](C)CC1 [Compound 333]
C[C@@H](c1ccc(NC(=O)[C@@H](NC(=O)C(F)(F)c2cncc(C#N)c2)C2CCCCCC2)c(F)c1)[C@@H](NC(=O)c1cnns1)C(=O)N1CCN(C)CC1 [Compound 335]
CC1CCC(C(NC(=O)C(F)(F)c2cccc(C#N)c2)C(=O)Nc2ccc(C(C)C(NC(=O)c3cnns3)C(=O)N3CCN(C)CC3)cc2F)CC1 (centres unmarked) [Compound 336]
CCn1nccc1C(=O)N[C@H](C(=O)Nc1ccc([C@H](C)[C@@H](NC(=O)c2cnns2)C(=O)N2CCN(C)CC2)cc1F)C1CCCCCC1 [Compound 337]
CCn1nccc1C(=O)N[C@H](C(=O)Nc1ccc([C@H](C)[C@@H](NC(=O)NC2CC2)C(=O)N2CCN(C)CC2)cc1F)C1CCCCCC1 [Compound 338]
CC(C)n1nccc1C(=O)N[C@H](C(=O)Nc1ccc([C@H](C)[C@@H](NC(=O)NC2CC2)C(=O)N2CCN(C)CC2)cc1F)C1CCCCCC1 [Compound 339]
CCn1nccc1C(=O)N[C@H](C(=O)Nc1ccc([C@H](C)[C@@H](NC(=O)CC2CC2)C(=O)N2CCN(C)CC2)cc1F)C1CCCCCC1 [Compound 340]
CCC(=O)N[C@@H](C(=O)N1CCN(Cc2ccccn2)CC1)[C@@H](C)c1ccc(NC(=O)[C@@H](NC(=O)c2ccnn2CC)C2CCCCCC2)c(F)c1 [Compound 348]
CCC(=O)N[C@@H](C(=O)N1CCOCC1)[C@@H](C)c1ccc(NC(=O)[C@@H](NC(=O)C(F)(F)c2cccc(C#N)c2)C2CCCCCC2)c(F)c1 [Compound 349]
CCC(=O)N[C@@H](C(=O)N1CCC(C)(O)CC1)[C@@H](C)c1ccc(NC(=O)[C@@H](NC(=O)c2ccnn2CC)C2CCCCCC2)c(F)c1 [Compound 350]
CCC(=O)N[C@@H](C(=O)N1CCS(=O)(=O)CC1)[C@@H](C)c1ccc(NC(=O)[C@@H](NC(=O)C(F)(F)c2cccc(C#N)c2)C2CCCCCC2)c(F)c1 [Compound 354]
CCC(=O)N[C@@H](C(=O)N1CCC(C)(O)CC1)[C@@H](C)c1ccc(NC(=O)[C@@H](NC(=O)C(F)(F)c2cccc(C#N)c2)C2CCCCCC2)c(F)c1 [Compound 355]
CCC(=O)N[C@@H](C(=O)N1CCC(C)(O)CC1)[C@@H](C)c1ccc(NC(=O)[C@@H](NC(=O)c2conc2CC)C2CCCCCC2)c(F)c1 [Compound 357]
CCC(=O)N[C@@H](C(=O)N1CCN(Cc2ccccn2)CC1)[C@@H](C)c1ccc(NC(=O)[C@@H](NC(=O)C(F)(F)c2cccc(C#N)c2)C2CCCCC2)c(F)c1 [Compound 363]
CCC(=O)N[C@@H](C(=O)N1CCC(C)(O)CC1)[C@@H](C)c1ccc(NC(=O)[C@@H](NC(=O)C(F)(F)c2cccc(C#N)c2)C2CCCCC2)c(F)c1 [Compound 364]
CCC(=O)N[C@@H](C(=O)N1CCN(Cc2ccccc2)CC1)[C@@H](C)c1ccc(NC(=O)[C@@H](NC(=O)c2ccnn2CC)C2CCCCC2)c(F)c1 [Compound 366]

IC50, 10 to 100 nM:
CCn1nccc1C(=O)N[C@H](C(=O)Nc1ccc(C[C@@H](NC(=O)c2cnns2)C(=O)N2CCN(C)CC2)cc1F)C1CCCCC1 [Compound 322]
COc1ccc(C(F)(F)C(=O)N[C@H](C(=O)Nc2ccc(C[C@@H](NC(=O)c3cnns3)C(=O)N3CCN(C)CC3)cc2F)C2CCCCC2)cn1 [Compound 323]
COc1cncc(C(F)(F)C(=O)N[C@H](C(=O)Nc2ccc(C[C@@H](NC(=O)c3cnns3)C(=O)N3CCN(C)CC3)cc2F)C2CCCCC2)c1 [Compound 324]
CCC(=O)N[C@H](Cc1ccc(NC(=O)[C@@H](NC(=O)c2ccnn2CC)C2CCCCC2)c(F)c1)C(=O)N1CCN(Cc2ccccc2)CC1 [Compound 325]
CCn1nccc1C(=O)N[C@H](C(=O)Nc1ccc([C@H](C)[C@@H](NC(=O)C2(F)CC2)C(=O)N2CCN(C)CC2)cc1F)C1CCCCCC1 [Compound 326]
CCn1nccc1C(=O)N[C@H](C(=O)Nc1ccc([C@H](C)[C@@H](NC(=O)NC(C)C)C(=O)N2CCN(C)CC2)cc1F)C1CCCCCC1 [Compound 327]
CC(C)NC(=O)N[C@@H](C(=O)N1CCN(C)CC1)[C@@H](C)c1ccc(NC(=O)[C@@H](NC(=O)c2ccnn2C(C)C)C2CCCCCC2)c(F)c1 [Compound 328]
CCC(=O)N[C@@H](C(=O)N1CCN(Cc2ccccn2)CC1)[C@@H](C)c1ccc(NC(=O)[C@@H](NC(=O)c2ccnn2CC)[C@H]2CC[C@H](C)CC2)c(F)c1 [Compound 341]
CCC(=O)N[C@@H](C(=O)N1CCOCC1)[C@@H](C)c1ccc(NC(=O)[C@@H](NC(=O)c2ccnn2CC)[C@H]2CC[C@H](C)CC2)c(F)c1 [Compound 342]
CCC(=O)N[C@@H](C(=O)N1CCC(C)(O)CC1)[C@@H](C)c1ccc(NC(=O)[C@@H](NC(=O)c2ccnn2CC)[C@H]2CC[C@H](C)CC2)c(F)c1 [Compound 343]
CCC(=O)N[C@@H](C(=O)N[C@@H](C)C1CC1)[C@@H](C)c1ccc(NC(=O)[C@@H](NC(=O)c2ccnn2CC)[C@H]2CC[C@H](C)CC2)c(F)c1 [Compound 344]
CCC(=O)N[C@@H](C(=O)NCC1CCC1)[C@@H](C)c1ccc(NC(=O)[C@@H](NC(=O)c2ccnn2CC)[C@H]2CC[C@H](C)CC2)c(F)c1 [Compound 345]
CCC(=O)N[C@@H](C(=O)NCC1(C)CC1)[C@@H](C)c1ccc(NC(=O)[C@@H](NC(=O)c2ccnn2CC)[C@H]2CC[C@H](C)CC2)c(F)c1 [Compound 346]
CCC(=O)N[C@@H](C(=O)N1CCOCC1)[C@@H](C)c1ccc(NC(=O)[C@@H](NC(=O)c2ccnn2CC)C2CCCCCC2)c(F)c1 [Compound 351]
CCC(=O)N[C@@H](C(=O)N1CCOCC1)[C@@H](C)c1ccc(NC(=O)[C@@H](NC(=O)C(F)(F)c2cccc(C#N)c2)C2CCCCC2)c(F)c1 [Compound 352]
CCC(=O)N[C@@H](C(=O)N1CCS(=O)(=O)CC1)[C@@H](C)c1ccc(NC(=O)[C@@H](NC(=O)c2ccnn2CC)C2CCCCCC2)c(F)c1 [Compound 353]
CCC(=O)N[C@@H](C(=O)N1CC(N(C)C)C1)[C@@H](C)c1ccc(NC(=O)[C@@H](NC(=O)c2ccnn2CC)C2CCCCCC2)c(F)c1 [Compound 356]
CCC(=O)N[C@@H](C(=O)N1CCN(CCOC)CC1)[C@@H](C)c1ccc(NC(=O)[C@@H](NC(=O)c2ccnn2CC)C2CCCCC2)c(F)c1 [Compound 358]
CCC(=O)N[C@@H](C(=O)N1CCOCC1)[C@@H](C)c1ccc(NC(=O)[C@@H](NC(=O)c2ccnn2CC)C2CCCCC2)c(F)c1 [Compound 359]
CCC(=O)N[C@@H](C(=O)NC1CCOCC1)[C@@H](C)c1ccc(NC(=O)[C@@H](NC(=O)c2ccnn2CC)C2CCCCC2)c(F)c1 [Compound 360]
CCC(=O)N[C@@H](C(=O)N1CCS(=O)(=O)CC1)[C@@H](C)c1ccc(NC(=O)[C@@H](NC(=O)c2ccnn2CC)C2CCCCC2)c(F)c1 [Compound 361]
CCC(=O)N[C@@H](C(=O)N1CCN(C(C)C)CC1)[C@@H](C)c1ccc(NC(=O)[C@@H](NC(=O)c2ccnn2CC)C2CCCCC2)c(F)c1 [Compound 362]
CCC(=O)N[C@@H](C(=O)N1CCS(=O)(=O)CC1)[C@@H](C)c1ccc(NC(=O)[C@@H](NC(=O)C(F)(F)c2cccc(C#N)c2)C2CCCCC2)c(F)c1 [Compound 365]
CCC(=O)NC(C(=O)N1CCN(Cc2ccccc2)CC1)[C@@H](C)c1ccc(NC(=O)[C@@H](NC(=O)c2ccnn2CC)[C@H]2CC[C@H](C)CC2)c(F)c1 (some centres unmarked) [Compound 367]
CCC(=O)N[C@@H](C(=O)N1CCC(F)(F)CC1)[C@@H](C)c1ccc(NC(=O)[C@@H](NC(=O)c2ccnn2CC)[C@H]2CC[C@H](C)CC2)c(F)c1 [Compound 369]
CCC(=O)N[C@@H](C(=O)N1CCC(C)CC1)[C@@H](C)c1ccc(NC(=O)[C@@H](NC(=O)c2ccnn2CC)[C@H]2CC[C@H](C)CC2)c(F)c1 [Compound 370]
CCC(=O)N[C@@H](C(=O)N1CCSCC1)[C@@H](C)c1ccc(NC(=O)[C@@H](NC(=O)c2ccnn2CC)[C@H]2CC[C@H](C)CC2)c(F)c1 [Compound 371]
CCC(=O)N[C@@H](C(=O)N1CCC(Oc2ccccc2)CC1)[C@@H](C)c1ccc(NC(=O)[C@@H](NC(=O)c2ccnn2CC)[C@H]2CC[C@H](C)CC2)c(F)c1 [Compound 372]
CCC(=O)N[C@@H](C(=O)N1CC2(C1)CC(F)(F)C2)[C@@H](C)c1ccc(NC(=O)[C@@H](NC(=O)c2ccnn2CC)[C@H]2CC[C@H](C)CC2)c(F)c1 [Compound 373]
CCC(=O)N[C@@H](C(=O)N1CCC(O)CC1)[C@@H](C)c1ccc(NC(=O)[C@@H](NC(=O)c2ccnn2CC)[C@H]2CC[C@H](C)CC2)c(F)c1 [Compound 374]
